From the NIST ThermoML archive (doi:10.1021/acs.jced.7b00429)
± gives the expanded uncertainty stated by the source.

Tests used:
[1] = 100 kPa, Liquid; for viscosity: Falling or rolling sphere viscometry; for speed of sound: Frequency=3 MHz, Single path-length method; for mass density: Vibrating tube method
[2] = xn = mol fraction of the nth substance listed; conditions: 100 kPa, Liquid, x2 = 0; for viscosity: Falling or rolling sphere viscometry; for speed of sound: Frequency=3 MHz, Single path-length method; for mass density: Vibrating tube method

| SMILES | viscosity ([1]; 298.15 K) | speed of sound ([1]; 298.15 K) | mass density ([1]; 298.15 K) | viscosity ([1]; 303.15 K) | speed of sound ([1]; 303.15 K) | mass density ([1]; 303.15 K) | viscosity ([1]; 308.15 K) | speed of sound ([1]; 308.15 K) | mass density ([1]; 308.15 K) | viscosity ([1]; 313.15 K) | speed of sound ([1]; 313.15 K) | mass density ([1]; 313.15 K) | viscosity ([1]; 318.15 K) | speed of sound ([1]; 318.15 K) | mass density ([1]; 318.15 K) | viscosity ([1]; 323.15 K) | speed of sound ([1]; 323.15 K) | mass density ([1]; 323.15 K) | also measured |
| --- | --- | --- | --- | --- | --- | --- | --- | --- | --- | --- | --- | --- | --- | --- | --- | --- | --- | --- | --- |
| CCn1cc[n+](C)c1.O=S(=O)([O-])C(F)(F)F [1-ethyl-3-methylimidazolium trifluoromethanesulfonate] | 45.67 ± 14 mPa·s | 1436 ± 10 m/s | 1379.91 ± 2.5 kg/m3 | 38.31 ± 12 mPa·s | 1425.4 ± 10 m/s | 1375.71 ± 2.5 kg/m3 | 32.38 ± 9.7 mPa·s | 1414.3 ± 10 m/s | 1371.51 ± 2.5 kg/m3 | 27.68 ± 8.3 mPa·s | 1403 ± 10 m/s | 1367.36 ± 2.5 kg/m3 | 23.86 ± 7.2 mPa·s | 1392.7 ± 10 m/s | 1363.21 ± 2.5 kg/m3 | 20.75 ± 6.2 mPa·s | 1381.7 ± 10 m/s | 1359.07 ± 2.5 kg/m3 |  |
| CC#N [acetonitrile] | 0.34 ± 0.1 mPa·s | 1278.5 ± 10 m/s | 776.71 ± 2 kg/m3 | 0.32 ± 0.1 mPa·s | 1258.4 ± 10 m/s | 771.29 ± 2 kg/m3 | 0.31 ± 0.09 mPa·s | 1238.2 ± 10 m/s | 765.83 ± 2 kg/m3 | 0.3 ± 0.09 mPa·s | 1218 ± 10 m/s | 760.34 ± 2 kg/m3 | 0.29 ± 0.09 mPa·s | 1197.9 ± 10 m/s | 754.82 ± 2 kg/m3 | 0.28 ± 0.08 mPa·s | 1177.8 ± 10 m/s | 749.25 ± 2 kg/m3 |  |
| CC#N [acetonitrile] + CCn1cc[n+](C)c1.O=S(=O)([O-])C(F)(F)F |  |  |  |  |  |  |  |  |  |  |  |  |  |  |  |  |  |  | viscosity ([2]; 298.15 K): 0.34 ± 0.1 mPa·s; speed of sound ([2]; 298.15 K): 1278.5 ± 10 m/s; mass density ([2]; 298.15 K): 776.71 ± 2 kg/m3; viscosity ([2]; 303.15 K): 0.32 ± 0.1 mPa·s; speed of sound ([2]; 303.15 K): 1258.4 ± 10 m/s; mass density ([2]; 303.15 K): 771.29 ± 2 kg/m3; viscosity ([2]; 308.15 K): 0.31 ± 0.09 mPa·s; speed of sound ([2]; 308.15 K): 1238.2 ± 10 m/s; mass density ([2]; 308.15 K): 765.83 ± 2 kg/m3; viscosity ([2]; 313.15 K): 0.3 ± 0.09 mPa·s; speed of sound ([2]; 313.15 K): 1218 ± 10 m/s; mass density ([2]; 313.15 K): 760.34 ± 2 kg/m3; viscosity ([2]; 318.15 K): 0.29 ± 0.09 mPa·s; speed of sound ([2]; 318.15 K): 1197.9 ± 10 m/s; mass density ([2]; 318.15 K): 754.82 ± 2 kg/m3; viscosity ([2]; 323.15 K): 0.28 ± 0.08 mPa·s; speed of sound ([2]; 323.15 K): 1177.8 ± 10 m/s; mass density ([2]; 323.15 K): 749.25 ± 2 kg/m3 |
